Data taken from publication PMC9127750, “Structure-based design of CDC42 effector interaction inhibitors for the treatment of cancer” (Cell reports, 2022).
Where “and” joins values, the source holds several entries; their conditions need not be identical. Equal values may be shown once.

Test system: WM3248 melanoma cells, 486 antibodies
Test: Reverse phase protein arrays (RPPA)
Type: cell-based, Human
Excerpt: Pellets were snap frozen in liquid nitrogen and shipped to MD Anderson Cancer Center core RPPA facility for RPPA analysis (Table S5). Three biological replicates for each sample were generated.
Nomenclatures on the RPPA heatmaps: name_of_antibody.species_of_antibody.status_of_antibody. V - antibody validated; C - validation of antibody in progress; Q - antibody nonspecific; E – under evaluation; antibodies raised in M - mouse, G - goat, R - rabbit, or T - rat.

[1] = level 5 normalized to 0, mean of 3
[2] = level 5 normalized to 0, single replicates

SMILES: CN(C)c1cccc(Nc2cc(-c3ccccc3)nc(C3CCNCC3)n2)c1 [ARN22089, N1,N1-dimethyl-N3-(6-phenyl-2-(piperidin-4-yl)pyrimidin-4-yl)benzene-1,3-diamine]
- S6 phosphorylation at serine 235/236 and 240/244 (RPPA) (WM3248, 6 h, 10 and 20 μM): inhibit S6 phosphorylation
- number of proteins with significantly influenced phosphorylation (RPPA) (WM3248, 6 h, 10 and/or 20 μM): 10
- number of proteins with significantly influenced abundance (RPPA) (WM3248, 6 h, 10 and/or 20 μM, 486 antibodies): 38
- TSC1.R.C Norm_5 Average [1]: 1.102
- TTF1.R.V Norm_5 Average [1]: 1.049
- TUFM.R.V Norm_5 Average [1]: 0.868
- Tuberin_pT1462.R.V Norm_5 Average [1]: 0.977
- Twist.M.C Norm_5 Average [1]: 0.950
- Tyro3.R.V Norm_5 Average [1]: 1.005
- U.Histone.H2B.R.C Norm_5 Average [1]: 1.142
- UBAC1.R.V Norm_5 Average [1]: 0.993
- UBQLN4.M.C Norm_5 Average [1]: 1.016
- ULK1_pS757.R.C Norm_5 Average [1]: 1.079
- UQCRC2.M.C Norm_5 Average [1]: 0.979
- UVRAG.R.C Norm_5 Average [1]: 1.020
- VASP.R.V Norm_5 Average [1]: 0.994
- VAV1.R.C Norm_5 Average [1]: 1.019
- VEGFR.2.R.V Norm_5 Average [1]: 1.081
- VEGFR.2_pY1175.R.C Norm_5 Average [1]: 0.910
- VHL.R.C Norm_5 Average [1]: 0.932
- Vinculin.M.V Norm_5 Average [1]: 1.019
- WIPI1.R.C Norm_5 Average [1]: 1.058
- WIPI2.R.C Norm_5 Average [1]: 1.061
- WTAP.R.V Norm_5 Average [1]: 0.959
- Wee1.R.C Norm_5 Average [1]: 1.054
- Wee1_pS642.R.C Norm_5 Average [1]: 0.993
- XBP.1.G.C Norm_5 Average [1]: 0.977
- XIAP.R.C Norm_5 Average [1]: 1.035
- XPA.M.V Norm_5 Average [1]: 0.929
- XPF.R.C Norm_5 Average [1]: 0.943
- XRCC1.R.C Norm_5 Average [1]: 0.946
- YAP.R.C Norm_5 Average [1]: 0.953
- YAP_pS127.R.V Norm_5 Average [1]: 0.906
- YB1_pS102.R.V Norm_5 Average [1]: 0.961
- YES1.R.V Norm_5 Average [1]: 0.962
- YTHDF2.R.V Norm_5 Average [1]: 1.076
- YTHDF3.R.C Norm_5 Average [1]: 0.987
- ZAP.70.R.V Norm_5 Average [1]: 0.952
- ZEB1.R.V Norm_5 Average [1]: 0.892
- TSC1.R.C Norm_5_1 to Norm_5_3 [2]: 1.060 and 1.024 and 1.221
- TTF1.R.V Norm_5_1 to Norm_5_3 [2]: 1.035 and 1.145 and 0.966
- TUFM.R.V Norm_5_1 to Norm_5_3 [2]: 0.845 and 0.669
- Tuberin.R.V Norm_5_1 to Norm_5_3 [2]: 1.052 and 1.301
- Tuberin_pT1462.R.V Norm_5_1 to Norm_5_3 [2]: 0.994 and 0.956 and 0.983
- Twist.M.C Norm_5_1 to Norm_5_3 [2]: 0.898 and 0.964 and 0.990
- Tyro3.R.V Norm_5_1 to Norm_5_3 [2]: 1.008 and 1.152 and 0.855
- U.Histone.H2B.R.C Norm_5_1 to Norm_5_3 [2]: 1.497 and 1.118 and 0.811
- UBAC1.R.V Norm_5_1 to Norm_5_3 [2]: 0.966 and 1.139 and 0.875
- UBQLN4.M.C Norm_5_1 to Norm_5_3 [2]: 0.962 and 1.147
- UGT1A.M.V Norm_5_1 to Norm_5_3 [2]: 0.962 and 0.965 and 0.979
- ULK1_pS757.R.C Norm_5_1 to Norm_5_3 [2]: 0.993 and 1.063
- UQCRC2.M.C Norm_5_1 to Norm_5_3 [2]: 0.997 and 1.139 and 0.800
- UVRAG.R.C Norm_5_1 to Norm_5_3 [2]: 1.096 and 0.960 and 1.005
- VASP.R.V Norm_5_1 to Norm_5_3 [2]: 1.053 and 0.992
- VAV1.R.C Norm_5_1 to Norm_5_3 [2]: 1.027 and 0.961
- VEGFR.2.R.V Norm_5_1 to Norm_5_3 [2]: 0.985 and 1.166
- VEGFR.2_pY1175.R.C Norm_5_1 to Norm_5_3 [2]: 0.849 and 0.870 and 1.011
- VHL.EPPK1.M.C Norm_5_1 to Norm_5_3 [2]: 0.542 and 1.028 and 0.909
- VHL.R.C Norm_5_1 to Norm_5_3 [2]: 0.928 and 0.903 and 0.966
- Vinculin.M.V Norm_5_1 to Norm_5_3 [2]: 0.942 and 1.027
- WIPI1.R.C Norm_5_1 to Norm_5_3 [2]: 1.134 and 1.302 and 0.738
- WIPI2.R.C Norm_5_1 to Norm_5_3 [2]: 1.104 and 0.916 and 1.163
- WTAP.R.V Norm_5_1 to Norm_5_3 [2]: 0.932 and 0.904
- Wee1.R.C Norm_5_1 to Norm_5_3 [2]: 0.867 and 1.101 and 1.195
- Wee1_pS642.R.C Norm_5_1 to Norm_5_3 [2]: 0.917 and 0.940 and 1.121
- XBP.1.G.C Norm_5_1 to Norm_5_3 [2]: 0.957 and 1.060 and 0.914
- XIAP.R.C Norm_5_1 to Norm_5_3 [2]: 1.060 and 0.982 and 1.062
- XPA.M.V Norm_5_1 to Norm_5_3 [2]: 0.895 and 0.876 and 1.017
- XPF.R.C Norm_5_1 to Norm_5_3 [2]: 0.932 and 0.922 and 0.975
- XRCC1.R.C Norm_5_1 to Norm_5_3 [2]: 0.894 and 1.030 and 0.916
- YAP.R.C Norm_5_1 to Norm_5_3 [2]: 0.937 and 0.945 and 0.977
- YAP_pS127.R.V Norm_5_1 to Norm_5_3 [2]: 0.985 and 0.903 and 0.830
- YB1_pS102.R.V Norm_5_1 to Norm_5_3 [2]: 0.906
- YES1.R.V Norm_5_1 to Norm_5_3 [2]: 0.963 and 1.014 and 0.910
- YTHDF2.R.V Norm_5_1 to Norm_5_3 [2]: 1.138 and 1.217 and 0.872
- YTHDF3.R.C Norm_5_1 to Norm_5_3 [2]: 1.049 and 0.875
- ZAP.70.R.V Norm_5_1 to Norm_5_3 [2]: 0.889 and 1.054
- ZEB1.R.V Norm_5_1 to Norm_5_3 [2]: 0.816 and 0.893 and 0.967
- HLA.DQA1.R.V Norm_5 Average (level 5 vs 0): 0.908
- HLA.DR.DP.DQ.DX.R.C Norm_5 Average (level 5 vs 0): 0.994
- HSP27.M.C Norm_5 Average (level 5 vs 0): 0.932
- HSP27_pS82.R.V Norm_5 Average (level 5 vs 0): 1.025
- HSP60.R.V Norm_5 Average (level 5 vs 0): 1.006
- HSP70.R.C Norm_5 Average (level 5 vs 0): 1.035
- Hexokinase.I.R.C Norm_5 Average (level 5 vs 0): 1.032
- Hexokinase.II.R.V Norm_5 Average (level 5 vs 0): 1.130
- Hif.1αR.C Norm_5 Average (level 5 vs 0): 1.202
- Histone.H3.R.V Norm_5 Average (level 5 vs 0): 1.065
- Histone.H3_pS10.R.V Norm_5 Average (level 5 vs 0): 0.786
- IDO.R.C Norm_5 Average (level 5 vs 0): 1.015
- IGF1R_pY1135_Y1136.R.V Norm_5 Average (level 5 vs 0): 1.003
- IGFBP2.R.V Norm_5 Average (level 5 vs 0): 1.029
- IGFBP3.M.V Norm_5 Average (level 5 vs 0): 0.953
- IGFRb.R.C Norm_5 Average (level 5 vs 0): 1.085
- IL.6.R.C Norm_5 Average (level 5 vs 0): 1.015
- INPP4b.R.C Norm_5 Average (level 5 vs 0): 1.023
- IR.b.R.C Norm_5 Average (level 5 vs 0): 1.051
- IRF.1.R.V Norm_5 Average (level 5 vs 0): 0.995
- IRF.3.R.V Norm_5 Average (level 5 vs 0): 0.937
- IRS1.R.V Norm_5 Average (level 5 vs 0): 1.023
- IRS2.R.C Norm_5 Average (level 5 vs 0): 0.992
- JNK2.R.V Norm_5 Average (level 5 vs 0): 1.065
- JNK_pT183_Y185.R.C Norm_5 Average (level 5 vs 0): 0.992
- Jagged1.R.V Norm_5 Average (level 5 vs 0): 0.984
- Jak2.R.V Norm_5 Average (level 5 vs 0): 1.003
- KEAP1.R.V Norm_5 Average (level 5 vs 0): 0.955
- LAD1.R.V Norm_5 Average (level 5 vs 0): 0.963
- LC3A.B.R.C Norm_5 Average (level 5 vs 0): 1.012
- LCN2.R.V Norm_5 Average (level 5 vs 0): 1.298
- LDHA.R.C Norm_5 Average (level 5 vs 0): 1.102
- LRP6_pS1490.R.V Norm_5 Average (level 5 vs 0): 1.046
- Lasu1.R.V Norm_5 Average (level 5 vs 0): 0.972
- Lck.R.V Norm_5 Average (level 5 vs 0): 1.010
- Lyn.R.V Norm_5 Average (level 5 vs 0): 0.844
- MAPK_pT202_Y204.R.C Norm_5 Average (level 5 vs 0): 0.869
- MCT4.R.V Norm_5 Average (level 5 vs 0): 1.048
- MDM2_pS166.R.V Norm_5 Average (level 5 vs 0): 1.023
- MEK1.R.V Norm_5 Average (level 5 vs 0): 1.023
- MEK1_pS217_S221.R.V Norm_5 Average (level 5 vs 0): 0.982
- MERIT40.R.C Norm_5 Average (level 5 vs 0): 0.989
- METTL3.R.V Norm_5 Average (level 5 vs 0): 0.986
- MIF.R.C Norm_5 Average (level 5 vs 0): 0.948
- MIG6.R.V Norm_5 Average (level 5 vs 0): 0.939
- MITF.R.V Norm_5 Average (level 5 vs 0): 1.020
- MLH1.M.V Norm_5 Average (level 5 vs 0): 0.926
- MLKL.R.V Norm_5 Average (level 5 vs 0): 0.945
- MMP2.R.V Norm_5 Average (level 5 vs 0): 0.946
- MR1.M.C Norm_5 Average (level 5 vs 0): 0.994
- MRAP.R.C Norm_5 Average (level 5 vs 0): 1.051
- MSH2.R.C Norm_5 Average (level 5 vs 0): 0.954
- MSH6.R.C Norm_5 Average (level 5 vs 0): 1.056
- MSI2.R.C Norm_5 Average (level 5 vs 0): 1.081
- MTCO1.M.V Norm_5 Average (level 5 vs 0): 1.081
- MTSS1.M.C Norm_5 Average (level 5 vs 0): 0.950
- Mcl.1.R.V Norm_5 Average (level 5 vs 0): 0.960
- MelanA.R.C Norm_5 Average (level 5 vs 0): 1.007
- Melanoma.gp100.R.C Norm_5 Average (level 5 vs 0): 1.060
- Merlin.R.C Norm_5 Average (level 5 vs 0): 1.018
- Midkine.R.V Norm_5 Average (level 5 vs 0): 0.932
- Mitofusin.1.R.V Norm_5 Average (level 5 vs 0): 1.025
- Mnk1.R.V Norm_5 Average (level 5 vs 0): 1.012
- mTOR.R.V Norm_5 Average (level 5 vs 0): 1.033
- mTOR_pS2448.R.C Norm_5 Average (level 5 vs 0): 1.080
- HLA.DQA1.R.V Norm_5 (level 5 vs 0, replicates): 0.839 and 1.026 and 0.858
- HLA.DR.DP.DQ.DX.R.C Norm_5 (level 5 vs 0, replicates): 0.915 and 1.122 and 0.946
- HMHA1.R.V Norm_5 (level 5 vs 0, replicates): 1.034 and 1.050 and 1.124
- HNRNPK.R.V Norm_5 (level 5 vs 0, replicates): 0.924 and 0.922 and 0.995
- HSP27.M.C Norm_5 (level 5 vs 0, replicates): 0.955 and 1.006 and 0.835
- HSP27_pS82.R.V Norm_5 (level 5 vs 0, replicates): 0.966 and 0.991 and 1.118
- HSP60.R.V Norm_5 (level 5 vs 0, replicates): 1.007 and 0.973
- HSP70.R.C Norm_5 (level 5 vs 0, replicates): 1.007 and 1.047 and 1.051
- Hexokinase.I.R.C Norm_5 (level 5 vs 0, replicates): 1.009 and 1.149
- Hexokinase.II.R.V Norm_5 (level 5 vs 0, replicates): 1.156 and 1.123 and 1.110
- Hif.1αR.C Norm_5 (level 5 vs 0, replicates): 1.356 and 1.081 and 1.170
- Histone.H3.R.V Norm_5 (level 5 vs 0, replicates): 1.165 and 1.542 and 0.488
- Histone.H3_pS10.R.V Norm_5 (level 5 vs 0, replicates): 0.733 and 1.032 and 0.592
- IDO.R.C Norm_5 (level 5 vs 0, replicates): 1.121 and 0.959 and 0.966
- IGF1R_pY1135_Y1136.R.V Norm_5 (level 5 vs 0, replicates): 0.933 and 1.035
- IGFBP2.R.V Norm_5 (level 5 vs 0, replicates): 0.940 and 1.033 and 1.113
- IGFBP3.M.V Norm_5 (level 5 vs 0, replicates): 0.833 and 0.934
- IGFRb.R.C Norm_5 (level 5 vs 0, replicates): 1.063 and 1.065 and 1.126
- IL.6.R.C Norm_5 (level 5 vs 0, replicates): 1.051 and 0.961 and 1.033
- IMP3.R.C Norm_5 (level 5 vs 0, replicates): 0.861 and 0.973 and 1.018
